Measurements reported in patent US10889573B2, “Anthelmintic quinoline-3-carboxamide derivatives” (Bayer Animal Health GMBH, priority 2016, dated 2021).

How the values were obtained:
[1] = system: Nippostrongylus brasiliensis; assay: In vitro assay 2: Nippostrongylus brasiliensis (NIPOBR), acetylcholine esterase readout; details: read-out: activity (reduction of AChE compared to negative control); for inhibition at 1 µg/mL: 1 μg/ml; for inhibition at 10 µg/mL: 10 μg/ml
Method in brief: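 Readout was acetylcholine esterase activity released into the medium, compared with negative control, after exposing adult worms to compounds at final 10 ppm (10 μg/ml) or 1 ppm (1 μg/ml). Worms were first washed in antibiotic/amphotericin B-containing saline; compounds were dissolved in DMSO.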

[2] = system: Dirofilaria immitis microfilariae; assay: In vitro assay 3: Dirofilaria immitis microfilariae (DIROIM L1), motility; details: 72 h, read-out: EC50 (reduction of motility), 72 h incubation
[3] = system: Dirofilaria immitis third-stage larvae; assay: In vitro assay 4: Dirofilaria immitis (DIROIM L4), motility; details: 72 h, read-out: EC50 (reduction of motility)
[4] = system: Litomosoides sigmodontis third-stage larvae; details: 72 h, read-out: EC50 (reduction of motility)
Method: In Vitro Assay 5: Litomosoides sigmodontis (LTMOSI L3)
10 Litomosoides sigmodontis third-stage larvae, which were freshly isolated from the pleural cavity of an infected rodent, were added to wells of a microtitre plate containing a nutrient medium and the test compound in DMSO. Compounds were tested in concentration-response assay in duplicate. Larvae exposed to DMSO and no test compounds were used as negative controls. Larvae were evaluated after 72 h of incubation with the compound. Efficacy was determined as the reduction of motility in comparison to the negative control. Based on the evaluation of a wide concentration range, concentration-response curves as well as EC50-values were calculated.

Cooperia curticei = details: Cooperia curticei, 120 h, read-out: activity (larval mortality)
Method: In Vitro Assay 6: Cooperia curticei (COOPCU L3)
Solvent: dimethyl sulfoxide
Approximately 40 nematode larvae (Cooperia curticei) are transferred into a test tube containing the compound solution.
After 5 days percentage of larval mortality is recorded. 100% efficacy means all larvae are killed; 0% efficacy means no larvae are killed.

Haemonchus contortus = details: 120 h, read-out: activity (larval mortality)
Method: In Vitro Assay 7: Haemonchus contortus (HAEMCO L3)
Solvent: dimethyl sulfoxide
Approximately 40 larvae of the red stomach worm (Haemonchus contortus) are transferred into a test tube containing compound solution.
After 5 days the percentage of larval mortality is recorded. 100% efficacy means all larvae are killed, 0% efficacy means no larvae are killed.

C. elegans Slo-1a = C. elegans Slo-1a (Caenorhabditis elegans, UniProt Q95V25); details: pE50 (negative decadic logarithm of EC50), CHO cells expressing C. elegans Slo-1a, voltage sensitive dye
[5] = log P by HPLC on reversed phase columns (Method L0)
Method: Measurement of log P values was performed according to EEC directive 79/831 Annex V.A8 by HPLC (High Performance Liquid Chromatography) on reversed phase columns with the following methods: • ^[a] log P value is determined by measurement of LC-UV, in an acidic range, with 0.1% formic acid in water and acetonitrile as eluent (linear gradient from 10% acetonitrile to 95% acetonitrile). • ^[b] log P value is determined by measurement of LC-UV, in a neutral range, with 0.001 molar ammonium acetate solution in water and acetonitrile as eluent (linear gradient from 10% acetonitrile to 95% acetonitrile).
Calibration was done with straight-chain alkan-2-ones (with 3 to 16 carbon atoms) with known log P values (measurement of log P values using retention times with linear interpolation between successive alkanones).

Sequence of C. elegans Slo-1a (Q95V25 whole entry): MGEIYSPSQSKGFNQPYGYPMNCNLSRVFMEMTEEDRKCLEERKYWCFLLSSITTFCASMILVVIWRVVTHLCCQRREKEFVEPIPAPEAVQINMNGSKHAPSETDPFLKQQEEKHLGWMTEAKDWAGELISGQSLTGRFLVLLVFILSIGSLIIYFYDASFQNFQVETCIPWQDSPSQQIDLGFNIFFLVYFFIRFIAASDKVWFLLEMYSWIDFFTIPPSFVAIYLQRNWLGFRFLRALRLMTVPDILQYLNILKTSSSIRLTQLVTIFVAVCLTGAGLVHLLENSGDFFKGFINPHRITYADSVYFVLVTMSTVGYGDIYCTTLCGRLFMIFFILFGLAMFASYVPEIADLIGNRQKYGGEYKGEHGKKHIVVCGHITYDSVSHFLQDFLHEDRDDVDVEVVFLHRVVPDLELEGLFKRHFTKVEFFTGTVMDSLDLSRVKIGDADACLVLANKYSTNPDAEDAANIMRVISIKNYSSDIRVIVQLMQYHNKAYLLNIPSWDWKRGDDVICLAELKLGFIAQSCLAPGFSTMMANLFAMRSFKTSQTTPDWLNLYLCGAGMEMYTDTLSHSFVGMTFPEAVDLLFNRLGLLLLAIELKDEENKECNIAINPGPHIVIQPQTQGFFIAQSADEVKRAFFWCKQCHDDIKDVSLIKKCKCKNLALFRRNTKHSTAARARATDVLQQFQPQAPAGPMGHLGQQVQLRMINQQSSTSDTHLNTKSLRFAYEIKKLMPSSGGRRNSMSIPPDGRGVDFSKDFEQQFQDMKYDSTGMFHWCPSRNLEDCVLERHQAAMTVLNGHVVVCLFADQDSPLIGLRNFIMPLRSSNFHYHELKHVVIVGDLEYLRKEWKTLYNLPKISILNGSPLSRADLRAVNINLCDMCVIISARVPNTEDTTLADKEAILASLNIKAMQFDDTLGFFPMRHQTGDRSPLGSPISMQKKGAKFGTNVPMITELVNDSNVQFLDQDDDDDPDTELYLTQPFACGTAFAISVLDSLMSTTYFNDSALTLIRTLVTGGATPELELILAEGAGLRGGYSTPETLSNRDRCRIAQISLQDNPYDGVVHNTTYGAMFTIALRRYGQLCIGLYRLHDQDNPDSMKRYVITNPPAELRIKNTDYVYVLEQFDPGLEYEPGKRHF

Row | SMILES | inhibition at 1 µg/mL [1] | inhibition at 10 µg/mL [1] | EC50 [2] | EC50 [3] | EC50 [4] | mortality at 4 ppm (Cooperia curticei) | mortality at 20 ppm (Cooperia curticei) | mortality at 4 ppm (Haemonchus contortus) | mortality at 20 ppm (Haemonchus contortus) | EC50 (C. elegans Slo-1a) | chromatographic logP [5]
1 | O=C(N[C@H]1CCOc2ccccc21)c1cnc2c(-c3cc(F)cc(Cl)c3)c(F)ccc2c1N1CCOCC1 [Example 143] | > 80% | > 80% | < 0.1 µg/mL | < 0.1 µg/mL | < 0.1 µg/mL | 100% | 100% | 100% | 100% | < 3.16 nM | 
2 | CCOc1c(C(=O)N[C@H]2CCOc3ccccc32)cnc2c(-c3cc(Cl)cc(Cl)c3)cccc12 [Example 341] | > 80% | > 80% | < 0.1 µg/mL | < 0.1 µg/mL | < 0.1 µg/mL | 90% | 100% | 80% | 80% | < 3.16 nM | 
3 | CCc1c(C(=O)N[C@H]2CCOc3ccccc32)cnc2c(-c3cc(Cl)cc(Cl)c3)cccc12 [Example 350, 8-(3,5-dichlorophenyl)-N-[(4S)-3,4-dihydro-2H-chromen-4-yl]-4-ethyl quino-line-3-carboxamide] | > 80% |  | < 0.1 µg/mL | < 0.1 µg/mL | < 0.1 µg/mL | 100% | 100% | 100% | 100% | < 3.16 nM | 5.06
4 | O=C(N[C@H]1CCOc2ccccc21)c1cnc2c(-c3cc(Cl)cc(Cl)c3)cccc2c1N1CC(F)(F)C1 [Example 394] | > 80% |  | < 0.1 µg/mL | < 0.1 µg/mL | < 0.1 µg/mL |  | 80% | 80% | 80% | 3.16 to 31.6 nM | 
5 | O=C(N[C@H]1CCOc2ccccc21)c1cnc2c(-c3cc(Cl)cc(Cl)c3)cccc2c1-c1ccncc1 [Example 396] | > 80% |  | < 0.1 µg/mL | < 0.1 µg/mL | < 0.1 µg/mL | 100% | 100% | 90% | 100% | < 3.16 nM | 
